Assay results as given in patent US10011571B2, “Preparation method for aromatic heterocyclic compound used as selective JAK3 and/or JAK1 kinase inhibitor and application of aromatic heterocyclic compound” (SHENZHEN CHIPSCREEN BIOSCIENCES, LTD., priority 2014, dated 2018).

What was measured:
JAK3 = JAK3 (Homo sapiens (Human), UniProt P52333); test: Z'-LYTE enzymatic activity detection, JAK3; assay type: biochemical; details: test compound 30 nM; for inhibition at 0.03 µM: read-out: JAK3 % inhibitory rate @30 nM
Chain of JAK3 (P52333 whole entry): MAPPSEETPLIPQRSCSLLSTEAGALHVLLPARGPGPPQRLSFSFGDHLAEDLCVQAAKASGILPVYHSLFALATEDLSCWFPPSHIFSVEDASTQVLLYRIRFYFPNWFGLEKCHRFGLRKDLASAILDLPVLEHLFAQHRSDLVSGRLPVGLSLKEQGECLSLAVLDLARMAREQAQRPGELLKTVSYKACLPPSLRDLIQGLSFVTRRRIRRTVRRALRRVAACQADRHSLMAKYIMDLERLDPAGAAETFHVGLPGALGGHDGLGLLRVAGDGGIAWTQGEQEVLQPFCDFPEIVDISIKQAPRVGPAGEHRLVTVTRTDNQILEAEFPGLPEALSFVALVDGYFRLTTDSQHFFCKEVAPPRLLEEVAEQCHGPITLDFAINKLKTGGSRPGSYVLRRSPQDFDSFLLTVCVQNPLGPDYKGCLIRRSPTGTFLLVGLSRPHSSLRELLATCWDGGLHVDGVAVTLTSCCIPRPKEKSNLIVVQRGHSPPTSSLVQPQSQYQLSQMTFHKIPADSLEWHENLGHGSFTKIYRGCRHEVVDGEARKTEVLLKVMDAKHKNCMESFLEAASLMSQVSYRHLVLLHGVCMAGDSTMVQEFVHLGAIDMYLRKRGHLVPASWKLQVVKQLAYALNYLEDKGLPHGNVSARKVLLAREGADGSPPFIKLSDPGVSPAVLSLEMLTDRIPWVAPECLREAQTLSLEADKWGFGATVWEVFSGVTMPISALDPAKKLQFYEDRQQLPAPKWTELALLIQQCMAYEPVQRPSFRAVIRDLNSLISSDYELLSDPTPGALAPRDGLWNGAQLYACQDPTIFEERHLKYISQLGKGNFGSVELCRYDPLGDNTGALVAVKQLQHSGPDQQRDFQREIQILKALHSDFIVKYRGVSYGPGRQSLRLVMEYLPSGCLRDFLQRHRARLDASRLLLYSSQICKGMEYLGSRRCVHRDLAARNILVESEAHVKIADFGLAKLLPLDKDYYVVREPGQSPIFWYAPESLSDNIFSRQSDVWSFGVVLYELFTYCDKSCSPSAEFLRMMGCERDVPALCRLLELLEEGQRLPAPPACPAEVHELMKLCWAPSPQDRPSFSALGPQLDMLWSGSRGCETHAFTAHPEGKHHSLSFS
Protocol: (§1) The basic principle of in vitro enzymatic activity assay is based on the difference between the intensities of fluorescence signals generated at different wavelengths (445 nm and 520 nm) from the phosphorylated substrate and non-phosphorylated substrate, in which the specific fluorescence-labeled substrate is phosphorylated by the kinase. When different test compounds are added, the inhibition of kinase activity is represented as the different degrees of substrate phosphorylation, and thus as the different intensities of fluorescence signal, based on which the inhibitory activity of the compound on the kinase can be calculated. Basic detection principle is illustrated in FIG. 1.
(§2) In an enzymatic inhibitory activity detection, GST-labeled human recombinant JAK kinases, including JAK1/PV4774, JAK2/PV4210, JAK3/PV3855, TYK2/PV4790 and their corresponding specific substrates, including Tyr6 (Z′-LYTE® Kinase Assay Kit-Tyrosine 6 Peptide, JAK1/PV4122), Tyr4 (Z′-LYTE® Kinase Assay Kit-Tyrosine 4 Peptide, JAK2/PV3193), Tyr4 (Z′-LYTE® Kinase Assay Kit-Tyrosine 4 Peptide, JAK3/PV3193), Tyr3 (Z′-LYTE® Kinase Assay Kit-[…], TYK2/PV3192) are used. In all tests, development reagent A (PV3297) was used as the test agent. All materials mentioned above were purchased from Invitrogen.
(§3) (1) Preparation: kinase reaction buffer (working solution) is prepared according to the instruction; a concentration gradient of the test compound is prepared by dilution using the kinase reaction buffer (the highest compound concentration is 10 μM for JAK1, JAK2, and TYK2 detection, and 1 μM for JAK3 detection, respectively).
(§4) (2) 10 μl of reaction system, comprising 2.5 μL test compound, 5 μL kinase reaction buffer and 2.5 μL ATP solution (provided by the kit), is mixed and reaction is performed at room temperature for 1 h.
(§5) (3) Controls, including a solvent control without the test compound, a negative control without ATP and a positive control with the phosphorylated substrate, are tested together with the detection. All tests are carried out in triplicate.
(§6) (4) After the enzymatic reaction, 5 μL pre-formulated development buffer is added, and reaction is performed at room temperature for 1 h. Subsequently, the reaction is terminated by adding 5 μL stop buffer.
(§7) (5) The fluorescence signal in each well is detected by an Ascent Fluoroskan FL reader (Thermo Labsystems) at an excitation wavelength of 400 nm, and emission wavelengths of 445 nm and 520 nm. The proportion of substrate phosphorylation is obtained by reference to the fluorescence signal intensity C445/F520.
(§8) (6) The enzymatic inhibitory rate of the test compound can be calculated based on the following equation: Inhibitory rate (%)=1−the proportion of substrate phosphorylation in the detection well/the proportion of substrate phosphorylation in the solvent control well. The half-inhibitory concentration (IC50) can be calculated using an IC50 calculator based on the inhibitory rates of phosphorylation for the test compounds at different concentration gradients.
(§9) Based on the above method, the compounds described herein are enzymatically evaluated in vitro for JAKs (the concentration of the test compound is 30 nM for JAK3 and JAK2 test, and 300 nM for JAK1 test) using Xeljanz (tofacitinib citrate) as the positive control.

CTLL-2 cells = test: Cell growth activity assay (MTS), CTLL-2 cell model; assay type: cell-based, mouse; details: Mus musculus, CTLL-2, 300 nM, 24 h, read-out: CTLL-2 % growth rate @300 nM
Excerpt: (§10) MTS assay is a routine method for cell toxicity detection. The basic principle is based on the capacity of dehydrogenase in the mitochondria of living cells to reduce a novel yellow […] MTS to formazan, so that the amount of living cells is proportional to the amount of formazan product by detecting the absorbance at 490 nm (OD), thereby speculating the amount of living cells according to the OD value, and understanding the capacity of the test compound to inhibit the growth of cells or to kill the cells.
In this experiment, mouse T-cell line CTLL-2 was used. The proliferation and growth of this cell line strongly depend on IL-2, and it is commonly used to evaluate the active titer of exogenous IL-2. By inhibiting the activity of kinase JAK1/3, the proliferation of CTLL-2 can be inhibited under in vitro culture. The activation and proliferation of T-cell is also important pathological characteristics for various immunological diseases. Thus, this model is also pathologically related.
By comparing the change of absorbance generated by the cells treated by the test compounds using MTS assay, the growth inhibitory activity of the test compounds on the model cells can be realized, and thereby potential inhibitory activity of the compounds on JAK1/3 pathway can be evaluated.
(§11) MTS is performed according to routine procedure in a 96-well plate.
(§12) The model cells are inoculated into each well of the 96-well plate at an appropriate concentration (about 20,000 cells/well). After 24 h, the test compounds are added at different concentration gradients (the highest concentration of 10 μM). A solvent control (DMSO) and a negative control are also performed at the same time. Each experiment is repeated for 3 times. The cells are detected after cultured for another 24 h.
CTLL-2 is a suspended cell. After incubation, 20 μL pre-formulated mixture of MTS and PMS (in a ratio of 20:1) is directly added to each well. After incubation at 37° C. for 2 h, it is then detected by a microplate reader (490 nm).
The effect of the test compound on cell growth is calculated by comparing the change of OD values between the test well and the solvent control well, after subtracting the background of the negative control. For the test compounds at different concentration gradients, the inhibitory rates on the growth of model cells and their half-growth inhibitory concentrations (GI50) are each calculated.
Based on the above method, cytological evaluation is performed to the compounds described herein (for the detection of CTLL-2 cell, the concentration of the test compound is 300 nM; for the detection of HeLa and HUVEC cell, the concentration of the test compound is […]).

HeLa cells = test: Cell growth activity assay (MTS), HeLa cell model; assay type: cell-based, human; design: activity: dose or concentration left out as unconfirmed; details: Homo sapiens, HeLa, 72 h, read-out: HeLa % growth rate
Excerpt: as §10
HeLa cell is a human cervical cancer cell line, and belongs to epithelial tumor cell line; HUVEC is a human umbilical vein endothelial cell, and belongs to primary endothelial cell; both types of cells express all subtypes except for JAK3.
The change of JAK kinase activity has no significant influence on other cell types except for the immune cells, and both cell models mentioned above are mainly used to evaluate whether there are any other kinase targets besides JAK kinases or there are nonselective cell toxicities.
In this experiment, a cultured cell model is incubated with the test compounds at different concentrations for a specific duration. The effect of the treatment by the test compound on the growth of cells is detected using MTS assay.
as §11
as §12, with “(about 5000” for “(about 20,000”, “highest final” for “highest”, “concentration is 40” for “concentration of 10”, “another 72” for “another 24”
After all culture medium is aspirated out of the well, 100 μL fresh medium and 20 μL pre-formulated mixture of MTS and PMS (in a ratio of 20:1) are added to each well. After incubation at 37° C. for 2 h, it is then detected by a microplate reader (490 nm).
The cell growth inhibitory rate and GI50 of the test compound are calculated as above.
Based on the above method, cytological evaluation is performed to the compounds described herein (for the detection of CTLL-2 cell, the concentration of the test compound is 300 nM; […]).

JAK1 = JAK1 (Homo sapiens (Human), UniProt P23458); test: Z'-LYTE enzymatic activity detection, JAK1; assay type: biochemical; details: test compound 300 nM; for inhibition at 0.3 µM: read-out: JAK1 % inhibitory rate @300 nM
Chain of JAK1 (P23458 whole entry): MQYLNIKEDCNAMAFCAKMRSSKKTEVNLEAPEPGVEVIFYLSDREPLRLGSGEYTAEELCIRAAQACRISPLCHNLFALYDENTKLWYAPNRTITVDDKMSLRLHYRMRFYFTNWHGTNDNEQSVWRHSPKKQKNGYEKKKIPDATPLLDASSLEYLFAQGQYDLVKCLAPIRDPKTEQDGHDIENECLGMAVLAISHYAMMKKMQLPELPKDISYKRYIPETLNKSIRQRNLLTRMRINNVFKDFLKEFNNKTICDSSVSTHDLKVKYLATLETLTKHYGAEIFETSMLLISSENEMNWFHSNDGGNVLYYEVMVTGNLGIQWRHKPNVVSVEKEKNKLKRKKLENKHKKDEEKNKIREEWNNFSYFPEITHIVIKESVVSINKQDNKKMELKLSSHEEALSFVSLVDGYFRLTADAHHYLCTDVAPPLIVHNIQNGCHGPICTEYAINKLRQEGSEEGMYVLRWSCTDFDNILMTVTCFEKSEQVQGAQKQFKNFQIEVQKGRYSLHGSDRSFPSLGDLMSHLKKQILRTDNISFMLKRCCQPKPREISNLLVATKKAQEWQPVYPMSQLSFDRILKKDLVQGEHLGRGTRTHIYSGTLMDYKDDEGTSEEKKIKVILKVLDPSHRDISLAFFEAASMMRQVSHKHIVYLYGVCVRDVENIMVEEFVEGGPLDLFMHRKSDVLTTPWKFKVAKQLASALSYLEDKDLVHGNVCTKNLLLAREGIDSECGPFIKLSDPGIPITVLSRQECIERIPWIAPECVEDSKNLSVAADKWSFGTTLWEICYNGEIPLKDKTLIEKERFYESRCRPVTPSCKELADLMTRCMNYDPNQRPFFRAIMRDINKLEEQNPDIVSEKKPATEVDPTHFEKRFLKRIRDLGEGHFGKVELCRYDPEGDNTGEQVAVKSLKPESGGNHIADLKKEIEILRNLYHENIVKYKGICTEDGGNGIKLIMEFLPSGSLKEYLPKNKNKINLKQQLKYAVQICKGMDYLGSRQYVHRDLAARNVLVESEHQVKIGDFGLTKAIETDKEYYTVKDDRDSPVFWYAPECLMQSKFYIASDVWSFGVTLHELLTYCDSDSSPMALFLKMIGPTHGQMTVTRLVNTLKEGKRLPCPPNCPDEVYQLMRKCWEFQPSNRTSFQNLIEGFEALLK
Protocol: as §1, §2, §3, §4, §5, §6, §7, §8, §9

JAK2 = JAK2 (Homo sapiens (Human), UniProt O60674); test: Z'-LYTE enzymatic activity detection, JAK2; assay type: biochemical; details: test compound 30 nM; for inhibition at 0.03 µM: read-out: JAK2 % inhibitory rate @30 nM
Chain of JAK2 (O60674 whole entry): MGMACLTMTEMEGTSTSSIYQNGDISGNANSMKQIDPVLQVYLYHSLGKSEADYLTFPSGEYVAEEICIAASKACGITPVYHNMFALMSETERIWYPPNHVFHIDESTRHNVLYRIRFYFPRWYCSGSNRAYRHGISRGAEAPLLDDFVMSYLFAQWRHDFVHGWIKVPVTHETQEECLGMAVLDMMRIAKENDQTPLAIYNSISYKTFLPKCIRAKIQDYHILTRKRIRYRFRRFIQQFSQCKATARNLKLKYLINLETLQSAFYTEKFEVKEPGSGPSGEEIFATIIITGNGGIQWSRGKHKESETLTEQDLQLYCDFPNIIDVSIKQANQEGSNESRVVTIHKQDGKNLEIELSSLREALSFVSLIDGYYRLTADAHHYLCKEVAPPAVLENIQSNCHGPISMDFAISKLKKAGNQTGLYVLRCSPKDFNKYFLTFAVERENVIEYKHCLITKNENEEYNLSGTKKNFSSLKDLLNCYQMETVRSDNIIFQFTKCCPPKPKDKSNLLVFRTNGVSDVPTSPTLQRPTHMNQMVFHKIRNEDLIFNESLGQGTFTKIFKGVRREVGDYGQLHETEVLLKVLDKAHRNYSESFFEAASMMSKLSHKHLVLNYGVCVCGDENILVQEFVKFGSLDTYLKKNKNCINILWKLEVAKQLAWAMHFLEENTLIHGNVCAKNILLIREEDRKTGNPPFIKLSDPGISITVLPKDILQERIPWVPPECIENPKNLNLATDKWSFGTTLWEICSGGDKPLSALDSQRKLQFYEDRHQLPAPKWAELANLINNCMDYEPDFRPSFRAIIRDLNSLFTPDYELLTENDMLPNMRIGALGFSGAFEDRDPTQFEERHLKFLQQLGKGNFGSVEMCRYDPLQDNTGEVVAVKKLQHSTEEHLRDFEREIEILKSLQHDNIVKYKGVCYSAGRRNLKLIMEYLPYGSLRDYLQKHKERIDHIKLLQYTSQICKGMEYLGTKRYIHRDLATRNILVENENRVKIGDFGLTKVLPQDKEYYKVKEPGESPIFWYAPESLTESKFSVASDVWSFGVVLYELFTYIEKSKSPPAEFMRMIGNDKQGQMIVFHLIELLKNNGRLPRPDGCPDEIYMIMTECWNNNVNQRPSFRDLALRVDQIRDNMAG
Protocol: as §1, §2, §3, §4, §5, §6, §7, §8, §9

JAK3 RV (ratio between the inhibitory rate of the test compound and that of Xeljanz) (JAK3) | inhibition at 0.03 µM (JAK3) [%] | JAK1 RV (ratio between the inhibitory rate of the test compound and that of Xeljanz) (JAK1) | inhibition at 0.3 µM (JAK1) [%] | inhibition at 0.03 µM (JAK2) [%] | JAK2 RV (ratio between the inhibitory rate of the test compound and that of Xeljanz) (JAK2) | SMILES | activity at 0.3 µM (CTLL-2 cells) [%] | activity (HeLa cells) [%]
0.78 | 105 | 0.13 | 13 | 0 |  | C=CC(=O)N(C)c1cc(Nc2ncc(Cl)c(NCCCNC(=O)Cc3ccc(C#N)cc3)n2)ccc1F [Example 64, N-(5-(5-chloro-4-(3-(2-(4-cyanophenyl)acetamino)propylamino)pyrimidinyl-2-amino)-2-fluorophenyl)-N-methylacrylamide] | 37 | 78
0.76 | 103 | 0.15 | 15 | 0 |  | C=CC(=O)N(C)c1cc(Nc2ncc(Cl)c(NCCCNS(=O)(=O)c3ccc(C#N)cc3)n2)ccc1F [Example 68, 4-cyano-N-(3-(5-chloro-2-(4-fluoro-3-(N-methylacrylamido)phenylamino)pyrimidinyl-4-amino)propyl)benzenesulfonamide] | 69 | 110
0.70 | 95 | 0.70 | 7 | 1 | 0.01 | C=CC(=O)N(C)c1cc(Nc2ncc(Cl)c(OCCCNC(=O)c3ccc(C#N)cc3)n2)ccc1F [Example 71, N-(3-(5-chloro-2-(4-fluoro-3-(N-methylacrylamido)phenylamino)pyrimidinyl-4-oxo)propyl)-4-cyano-benzamide] | 70 | 112
0.90 | 121 | 0.14 | 14 | 0 |  | C=CC(=O)N(C)c1cc(Nc2ncc(Cl)c(NCCCNC(=O)c3ccncc3)n2)ccc1F [Example 75, N-(3-(5-chloro-2-(4-fluoro-3-(N-methylacrylamido)phenylamino)pyrimidinyl-4-amino)propyl)isonicotinamide] | 49 | 102
0.96 | 80 | 0.22 | 19 | 0 |  | C=CC(=O)N(C)c1cc(Nc2ncc(Cl)c(NCCCNC(=O)c3ccc(CC)cc3)n2)ccc1F [Example 79, N-(3-(5-chloro-2-(4-fluoro-3-(N-methylacrylamido)phenylamino)pyrimidinyl-4-amino)propyl)-4-ethylbenzamide] | 3 | 78
0.92 | 76 | 0.42 | 36 | 2 | 0.04 | C=CC(=O)N(C)c1cc(Nc2ncc(Cl)c(NCCCNC(=O)c3ccc(C)cc3)n2)ccc1F [Example 83, N-(3-(5-chloro-2-(4-fluoro-3-(N-methylacrylamido)phenylamino)pyrimidinyl-4-amino)propyl)-4-methylbenzamide] | 4 | 70
0.99 | 82 | 0.51 | 43 | 0 |  | C=CC(=O)N(C)c1cc(Nc2ncc(Cl)c(NCCCNC(=O)c3ccccc3)n2)ccc1F [Example 87, N-(3-(5-chloro-2-(4-fluoro-3-(N-methylacrylamido)phenylamino)pyrimidinyl-4-amino)propyl)benzamide] | 3 | 22
0.99 | 82 | 0.24 | 20 | 0 |  | C=CC(=O)N(C)c1cc(Nc2ncc(Cl)c(NCCCNC(=O)c3cccc(C(F)(F)F)c3)n2)ccc1F [Example 91, N-(3-(5-chloro-2-(4-fluoro-3-(N-methylacrylamido)phenylamino)pyrimidinyl-4-amino)propyl)-3-trifluoromethylbenzamide] | 2 | 40
